From patent US8563565B2, “Pyrazoloquinoline derivatives” (Eisai R&D Management Co., Ltd., priority 2011, dated 2013) come the findings set out here.

Read-outs that look alike come from different tables or passages of the source.

The term IC50 denotes the concentration that gives 50% inhibition.

Assay [1] deals with T1, human recombinant PDE9 protein (Homo sapiens, UniProt O76083).
T1 construct: His-tag (inferred from the Ni column purification; a myc His-tag vector is named only for the HEK293 expression check); made in house; host or cells: silkworm (pYNG vector, Katakura Industries)
T1 sequence (O76083 whole entry): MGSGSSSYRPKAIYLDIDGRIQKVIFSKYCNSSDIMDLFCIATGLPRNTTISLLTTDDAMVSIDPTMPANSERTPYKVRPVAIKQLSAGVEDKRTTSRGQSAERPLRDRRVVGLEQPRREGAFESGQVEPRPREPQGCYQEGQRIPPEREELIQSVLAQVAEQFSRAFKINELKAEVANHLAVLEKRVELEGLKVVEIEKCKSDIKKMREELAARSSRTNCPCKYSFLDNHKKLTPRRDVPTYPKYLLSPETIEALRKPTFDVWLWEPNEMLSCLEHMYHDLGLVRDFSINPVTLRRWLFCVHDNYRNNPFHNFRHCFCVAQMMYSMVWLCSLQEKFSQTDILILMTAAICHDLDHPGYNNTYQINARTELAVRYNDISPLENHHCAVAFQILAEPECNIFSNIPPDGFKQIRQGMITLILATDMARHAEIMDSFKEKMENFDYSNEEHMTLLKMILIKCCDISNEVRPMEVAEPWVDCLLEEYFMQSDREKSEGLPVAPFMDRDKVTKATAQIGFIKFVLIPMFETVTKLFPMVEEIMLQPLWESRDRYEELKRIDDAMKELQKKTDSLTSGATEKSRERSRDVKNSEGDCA
Nature of the assay: PDE9 inhibitory activity test (measurement of PDE9 inhibitory action, [3H]-cGMP). In kind it is biochemical. The following applies: PDE9 IC50, human recombinant PDE9, 30° C., 10 min. From the text: 1) Preparation of a Human Recombinant PDE9 Protein
An hsPDE9A 1cDNA fragment was amplified by being based on a base sequence (Accession No.: AF048837) of the hsPDE9A1 registered on GenBank data base, and by using the following sequences (Hokkaido System Science Co., Ltd.) as a primer and Human hippocampus cDNA library (Clontech Laboratories, Inc.) as a template DNA, and using Pfu50 DNA polymerase (Invitrogen Corp.), and by a polymerase chain reaction (PCR) of the following condition.
The condition of PCR: [96° C., 5 min]×1 cycle, [(96° C., 10 sec), (57° C., 5 sec), (72° C., 2 min)]×30 cycles
The obtained hsPDE9A 1 cDNA fragment was incorporated in a TOPO-TA cloning vector (Invitrogen Corp.), and the base sequence was checked; and thereafter, the resultant was transfected in a pcDNA 3.1/myc His-tag vector (Invitrogen Corp.) to thereby make a human PDE9 expression vector for mammal cells. The human PDE9 expression vector for mammal cells was transfected with transient expression to an HEK293 cell by using a LIPOFETAMINE 2000 Reagent (Gibco). It was confirmed by Western blot method that the PDE9A expressed in the HEK293 cell, and then, the human PDE9A 1cDNA fragment was transfected in a pYNG vector (Katakura Industries Co., Ltd.) to thereby make an expression vector for insect cells. A supernatant of homogenized silk worm in which a large amount of PDE9 was expressed was purified by an equilibrated Ni column using a buffer A (20 mmol/L Tris-HCl, pH: 8.0, 1 mmol/L DTT, 10 mmol/L imidazole). After 1 hour of mixing of the supernatant and the Ni column, cleaning was carried out using a buffer B (20 mmol/L Tris-HCl, pH: 8.0, 1 mmol/L […]), and elution was carried out using a buffer C (20 mmol/L Tris-HCl, pH: 8.0, 1 mmol/L DTT, 100 mmol/L imidazole). An elution fraction was preparatively collected to thereby obtain a PDE9 enzyme solution.
2) Measurement of PDE9 Inhibitory Action
To 100 μL of a buffer D (40 mmol/L Tris-HCl, pH: 7.4, 10 mmol/L MgCl2, 1 mM DTT, 2 μM cGMP) solution containing [^3H]-cGMP ([…]/mL), 10 μL of a compound solution for evaluation (a solution in which a compound was dissolved in DMSO and diluted so that the DMSO concentration became 5%) and 90 μL of a solution prepared by diluting the PDE9 enzyme solution prepared in the above with a buffer E (40 mmol/L Tris-HCl, pH: 7.4, 10 mmol/L MgCl2, 1 mM DTT, 1 mmol/L EGTA) were added under ice cooling. The resultant mixed solution was incubated at 30° C. for 10 min, and thereafter heated for 2 min in boiled water to stop the enzyme reaction of the PDE9. Then, the resultant was returned to room temperature; 50 μL of 5′-Nucleotidase (Biomol GmbH, 10 units/mL) was added thereto; and the resultant was incubated at 30° C. for 10 min to thereby convert [^3H]-5′-GMP formed in the previous reaction to [^3H]-guanosine. 500 μL of an anion exchange resin (Bio-Rad AG1-X2 resin, mesh size: 200-400, H2O:resin=2:1) was added to the resultant reaction liquid, and allowed to stand for 10 min, and thereafter centrifuged (2,000 rpm, 10 min); and a supernatant in which the [^3H]-guanosine was present was transferred to a LumaPlate (PerkinElmer, Inc.), and the radioactivity was measured by a TopCount NXT microplate scintillation and luminescence counter (PerkinElmer, Inc.).
The inhibition percentage of the evaluation compound was calculated using the following expression, taking the radioactivity of a control containing no evaluation compound to be (A), the radioactivity of a blank containing no enzyme to be (B), and the radioactivity of the evaluation compound to be (C). Inhibition percentage=100−{[(C)−(B)]/[(A)−(B)]}×100(%)
The IC50 value for PDE9 of the evaluation compound was determined from inhibition percentage for various concentrations.

The test system of assay [2] is cGMP in the cerebrospinal fluid. Nature of the assay: Effect on rodent cerebrospinal fluid cGMP (rat). The following applies: po, read-out: % CSF cGMP increase from vehicle control. Format: in vivo. The procedure: 3) Effect on Rodent Cerebrospinal Fluid cGMP
The test compound was administered to ICR male mice (Charles River Laboratories Japan, Inc.), Sprague-Dawley male rats (SD) (Charles River Laboratories Japan, Inc.) or Long-Evans male rats (LE) (Institute for Animal Reproduction), and the cerebrospinal fluid was then collected under pentobarbital anesthesia and stored at −20° C. cGMP in the cerebrospinal fluid was measured in accordance with the acetylation EIA procedure of cGMP EIA kit (GE Healthcare) or the non-acetylation procedure of cGMP EIA kit (Cayman) The result was an increase (C) in the amount of cGMP of the test compound-administered group (B) relative to the amount of cGMP of the vehicle-administered group (A), and was calculated using the following formula cGMP increase(C)=[(B)−(A)]/(A)×100(%)

Assay [3] concerns cGMP in the hippocampus. Nature of the assay: Effect on rodent hippocampal cGMP. In kind it is in vivo, rat. The following applies: po, read-out: % hippocampal cGMP increase from vehicle control. The procedure:
4) Effect on Rodent Hippocampal cGMP
The test compound was administered to Sprague-Dawley male rats (Charles River Laboratories Japan, Inc.) or Long-Evans male rats (Institute for Animal Reproduction) and then the animals were sacrificed with microwave under pentobarbital anesthesia, and the hippocampus was extracted. After measuring the wet weight, the hippocampus was frozen with liquid nitrogen and stored at −80° C. In the measurement of cGMP in the hippocampus, a 0.5 M perchloric acid/1 mM EDTA solution was added at 5% (w/v) based on the wet weight, and the mixture was homogenized. After the homogenization, the homogenate was centrifuged (10000 rpm, 15 min), and the supernatant was collected. The collected supernatant was neutralized with a 2 M potassium bicarbonate solution and centrifuged (13000 rpm, 10 min). The cGMP concentration in the supernatant was measured in accordance with the non-acetylation EIA procedure of cGMP EIA kit (GE Healthcare). The result was an increase (C) in the amount of cGMP of the test compound-administered group (B) relative to the amount of cGMP of the vehicle-administered group (A), and was calculated using the following formula. cGMP increase(C)=[(B)−(A)]/(A)×100(%)

[4] abbreviates: rat(LE), 30 mg/kg p.o., sampling time 1 hr.

For `COc1nccc(C)c1-c1ccc2c(c1)[nH]c(=O)c1cnn(C3CCOC3)c12` (single isomer, unassigned) [32 (−)], the IC50 in assay [1] was 12.2 nM. Moreover, in assay [2] (rat(SD), 10 mg/kg p.o., sampling time 1 hr), the change in vivo at 10 mg/kg is 72%.
As for `COc1nc(C)cc(C)c1-c1ccc2c(c1)[nH]c(=O)c1cnn(C3CCOC3)c12` (single isomer, unassigned; (-)) [28 (−), (−)-7-(2-methoxy-4,6-dimethylpyridin-3-yl)-1-(tetrahydrofuran-3-yl)-1H-pyrazolo[4,3-c]quinolin-4(5H)-one], the IC50 in assay [1] came to 8.36 nM. Moreover, in assay [2] (Rattus norvegicus, 1 h), the change in vivo at 3 mg/kg turned out to be 257%.
On to `COc1cc(C)c(-c2ccc3c(c2)[nH]c(=O)c2cnn(C4CCOC4)c23)c(C)n1` (single isomer, unassigned; (-)) [29 (−), (−)-7-(6-methoxy-2,4-dimethylpyridin-3-yl)-1-(tetrahydrofuran-3-yl)-1H-pyrazolo[4,3-c]quinolin-4(5H)-one], for which the IC50 in assay [1] was determined as 30.7 nM. Further, the change in vivo at 30 mg/kg in assay [2] (Rattus norvegicus, 1 h) came to 238%; in assay [3] (Rattus norvegicus, 1 h), 34%.
As to `COc1ncc(C)c(-c2ccc3c(c2)[nH]c(=O)c2cnn([C@H]4CCOC4)c23)c1C` [26 S], the change in vivo at 10 mg/kg in assay [2] (Rattus norvegicus, 1 h) was 274%; in assay [3] (Rattus norvegicus, 1 h), 58%.
With `COc1cc(C)c(-c2ccc3c(c2)[nH]c(=O)c2cnn(C4CCOCC4)c23)c(C)n1` [Example 3, 7-(6-methoxy-2,4-dimethylpyridin-3-yl)-1-(tetrahydro-2H-pyran-4-yl)-1H-pyrazolo[4,3-c]quinolin-4(5H)-one], the IC50 in assay [1] turned out to be 14 nM. For the same molecule, the change in vivo at 10 mg/kg in assay [2] (Rattus norvegicus, 2 h) worked out at 186%; in assay [3] (Rattus norvegicus, 4 h) it was 32%.
As for `COc1nc(C)cc(C)c1-c1ccc2c(c1)[nH]c(=O)c1cnn(C3CCOCC3)c12` [Example 4, 7-(2-methoxy-4,6-dimethylpyridin-3-yl)-1-(tetrahydro-2H-pyran-4-yl)-1H-pyrazolo[4,3-c]quinolin-4(5H)-one], the IC50 in assay [1] amounted to 4.37 nM. The change in vivo at 30 mg/kg was 246% in assay [2] (Rattus norvegicus, 1 h) and 25% in assay [3] (Rattus norvegicus, 1 h).
With `COc1nccc(C)c1-c1ccc2c(c1)[nH]c(=O)c1cnn(C3CCOCC3)c12` [Example 6, 7-(2-methoxy-4-methylpyridin-3-yl)-1-(tetrahydro-2H-pyran-4-yl)-1H-pyrazolo[4,3-c]quinolin-4(5H)-one], the half-maximal inhibitory concentration (IC50) in assay [1] was 6.86 nM. Further, the change in vivo at 10 mg/kg in assay [2] (Rattus norvegicus, 1 h) worked out at 120%.
`COc1ncc(F)c(C)c1-c1ccc2c(c1)[nH]c(=O)c1cnn(C3CCOCC3)c12` [Example 12]: the IC50 in assay [1] was found to be 19.7 nM. For the same molecule, the change in vivo at 3 mg/kg in assay [2] (Rattus norvegicus, 1 h) is 91%.
Consider `COc1ncc(C)c(-c2ccc3c(c2)[nH]c(=O)c2cnn(C4CCOCC4)c23)c1C` [Example 15, 7-(2-methoxy-3,5-dimethylpyridin-4-yl)-1-(tetrahydro-2H-pyran-4-yl)-1H-pyrazolo[4,3-c]quinolin-4(5H)-one], for which, in assay [1], the IC50 was determined as 8.87 nM. Further, the change in vivo at 30 mg/kg is 203% in assay [2] (setting [4]) and 33% in assay [3] (setting [4]).
Regarding `Cc1cc(OC(F)F)nc(C)c1-c1ccc2c(c1)[nH]c(=O)c1cnn(C3CCOCC3)c12` [Example 18], the IC50 in assay [1] came out at 9.3 nM. Besides, the change in vivo at 3 mg/kg in assay [2] (Rattus norvegicus, 1 h) was determined as 123%.
As for `COc1cc(C)c(-c2ccc3c(c2)[nH]c(=O)c2cnn(C4CCOCC4)c23)c(CF)n1` [Example 24], the 50% inhibitory concentration (IC50) in assay [1] was found to be 18.7 nM. Further, the change in vivo at 10 mg/kg in assay [2] (Rattus norvegicus, 1 h) was 149%.
On to `COc1ncc(C)c(-c2ccc3c(c2)[nH]c(=O)c2cnn(C4COCCOC4)c23)c1C` [Example 43, 1-(1,4-dioxepan-6-yl)-7-(2-methoxy-3,5-dimethylpyridin-4-yl)-1H-pyrazolo[4,3-c]quinolin-4(5H)-one], for which the IC50 in assay [1] came to 10.5 nM. In addition, the change in vivo at 10 mg/kg in assay [2] (Rattus norvegicus, 1 h) turned out to be 292%; in assay [3] (Rattus norvegicus, 1 h), 33%.
Consider `Cc1cc(OC(C)C)nc(C)c1-c1ccc2c(c1)[nH]c(=O)c1cnn([C@H]3CCOC3)c12` [Example 51, (S)-7-(6-isopropyloxy-2,4-dimethylpyridin-3-yl)-1-(tetrahydrofuran-3-yl)-1H-pyrazolo[4,3-c]quinolin-4(5H)-one], for which the IC50 in assay [1] stood at 4.87 nM. Further, the change in vivo at 10 mg/kg in assay [2] (Rattus norvegicus, 1 h) came out at 189%; in assay [3] (Rattus norvegicus, 1 h), 17%.
As to `COc1ncc(C)c(-c2cc3[nH]c(=O)c4cnn([C@H]5CCOC5)c4c3cc2F)c1C` [Example 53, (S)-8-fluoro-7-(2-methoxy-3,5-dimethylpyridin-4-yl)-1-(tetrahydrofuran-3-yl)-1H-pyrazolo[4,3-c]quinolin-4(5H)-one], the IC50 in assay [1] is 10.1 nM. Also, the change in vivo at 10 mg/kg in assay [2] (Rattus norvegicus, 1 h) turned out to be 202%; in assay [3] (Rattus norvegicus, 1 h), 27%.
Turning to `COc1nc(C)cc(C)c1-c1cc2[nH]c(=O)c3cnn([C@H]4CCOC4)c3c2cc1F` [Example 54, (S)-8-fluoro-7-(2-methoxy-4,6-dimethylpyridin-3-yl)-1-(tetrahydrofuran-3-yl)-1H-pyrazolo[4,3-c]quinolin-4(5H)-one], the IC50 in assay [1] is 8.71 nM. For the same molecule, the change in vivo at 10 mg/kg was determined as 282% in assay [2] (Rattus norvegicus, 1 h) and 23% in assay [3] (Rattus norvegicus, 1 h).
Consider `CCOc1cc(C)c(-c2ccc3c(c2)[nH]c(=O)c2cnn([C@H]4CCOC4)c23)c(C)n1` [Example 62, (S)-7-(6-ethoxy-2,4-dimethylpyridin-3-yl)-1-(tetrahydrofuran-3-yl)-1H-pyrazolo[4,3-c]quinolin-4(5H)-one], for which the IC50 in assay [1] stood at 11.1 nM. The change in vivo at 3 mg/kg in assay [2] (Rattus norvegicus, 1 h) was 155%.
